Experimental data published in PMC11317148, “DNA-controlled protein fluorescence: Design of aptamer-split peptide hetero-modulator for GFP to respond to intracellular ATP levels” (Nucleic Acids Research, 2024).

What was measured:
[1] = system: A549 human lung carcinoma cells; assay: Live-cell imaging of the aptamer-modulated split GFP response to intracellular ATP; type: cell-based; details: cells treated with ssAPC/ipGFP1-9 and Oligomycin A, compared to untreated controls
Procedure: A549 human lung carcinoma cells were obtained from the Korean Cell Line Bank (Seoul, South Korea). The cells were cultured at 37°C and 5% CO2 in DMEM containing 10% FBS (v/v) and penicillin/streptomycin (Thermo Fisher Scientific, Waltham, MA, USA). A549 cells were seeded at a density of 1 × 10^4 cells/well in 96-well cell culture black plates (Greiner Bio One, Kremsmünster, Austria). After 24 h, the cells were transfected with naïve GFP, ipGFP1-9, and aptamer-peptide complexes using Lipofectamine 3000 (Thermo Fisher Scientific, Waltham, MA, USA) according to the manufacturer's instructions. The cells were imaged using the Cytation 7 Cell Imaging Multi-Mode Reader (BioTek Instruments, Winooski, VT, USA) with excitation/emission wavelengths of 488/525 nm for 24 h under cultivation conditions with 5% CO2 at 37°C. Images were analyzed using ImageJ software (https://imagej.nih.gov).
For starvation experiments, A549 cells were seeded at a density of 1 × 10^6 cells/dish in 100 mm^2 cell culture dishes. After incubation for 24 h, the medium was changed to DMEM without glucose. […] Intracellular ATP concentrations were measured using an ATP assay kit (Abcam, Cambridge, MA, USA) according to the manufacturer's instructions.
Finally, we assessed the functionality of aptamer-modulated split GFP to respond to intracellular ATP levels via the reassembly within cells. […]

[2] = system: tripartite split-GFP (ipGFP1-9); assay: ATP-mediated in vitro reconstitution of tripartite split-GFP (ssAPC + ipGFP1-9), fluorescence time course; type: biochemical; details: 10 mM of each nucleotide, 12 h incubation
Procedure: We prepared a 50 μL mixture containing 1 μM aptamer-peptide complex and 20 μM ipGFP1-9 in ATP binding buffer (ATPBB; 20 mM Tris, 300 mM NaCl and 5 mM MgCl2, pH 7.4). These mixtures were transferred to a 384-well black microplate (Greiner Bio One, Kremsmünster, Austria) and challenged with various concentrations of ATP (2–10 mM). Fluorescence intensities were measured over a time course of 20 h at 5 min intervals using the extended mode of Cytation 7 (BioTek, Winooski, VT, USA) with excitation/emission wavelengths of 488/525 nm.
To assess the functionality of the aptamer-split peptide conjugate for GFP function modulation, we performed a time-course in vitro reconstitution assay with ssAPC and split GFP1-9 in the presence of varying concentrations of ATP (Figure 2A). Our group previously reported an in vitro reconstitution application using intein-mediated purified split GFP1-9 (ipGFP1-9) with improved solubility and expression levels to provide evidence of compatibility for application in this study ([28]). […] In the absence of ATP, we observed a modest background signal that could yield a false-positive result at earlier time-points (Figure 2A, dark gray trace), although this could readily be distinguished as a negative result relative to ATP-containing samples at later time-points. […] As aforementioned, according to Kang et al., the performance of this ATP aptamer has been proven by measuring EC50 values in terms of ATP-induced structure-switching with different lengths of antisense DNAs (11–18 nt) ([27]).
We also verified the specificity of our system towards ATP as a trigger molecule by assessing its response to other nucleotides such as UTP, GTP and CTP under identical conditions. To validate the low false-positive rate of self-assembly or non-specific binding, we compared the recovered fluorescence intensities after 12 h of incubation with 10 mM of each nucleotide.
We subsequently evaluated the performance of our system in the context of sustained responsiveness to environmental ATP changes. We conducted an experiment in which we measured fluorescence intensity over time while adding extra ATP in 2 mM increments every 120 min, up to a final concentration of 10 mM.
To verify that the fluorescence signal resulted from ATP-induced structure-switching, we performed experiments with the aptamer-modulated split GFP, in which we included an inhibitory strand that was fully complementary to the ATP aptamer sequence. We first performed an assembly reaction with the ssAPC, ipGFP1-9, and ATP for 12 h to generate a strong fluorescent signal, after which we added the inhibitory strand at varying molar ratios relative to the ssAPC ranging from 1:5 to 1:20 (Figure 2D).

Oligomycin A
intensity of green fluorescence of ssAPC/ipGFP1-9 after ATP depletion [1]: conspicuous decrease

Nc1ccn([C@@H]2O[C@H](COP(=O)(O)OP(=O)(O)OP(=O)(O)O)[C@@H](O)[C@H]2O)c(=O)n1 [CTP]
fluorescence recovery of ssAPC/ipGFP1-9 assembly by nucleotide (specificity) [2]: minimal response

O=c1ccn([C@@H]2O[C@H](COP(=O)(O)OP(=O)(O)OP(=O)(O)O)[C@@H](O)[C@H]2O)c(=O)[nH]1 [UTP]
fluorescence recovery of ssAPC/ipGFP1-9 assembly by nucleotide (specificity) [2]: minimal response

Nc1nc2c(ncn2[C@@H]2O[C@H](COP(=O)(O)OP(=O)(O)OP(=O)(O)O)[C@@H](O)[C@H]2O)c(=O)[nH]1 [GTP]
fluorescence recovery of ssAPC/ipGFP1-9 assembly by nucleotide (specificity) [2]: minimal response

Nc1ncnc2c1ncn2[C@@H]1O[C@H](COP(=O)(O)OP(=O)(O)OP(=O)(O)O)[C@@H](O)[C@H]1O [ATP]
fluorescence recovery of ssAPC/ipGFP1-9 assembly by nucleotide (specificity) [2]: highly ATP-specific
